The target in this test is human IgG. Briefly: Surface plasmon resonance (SPR) analysis of synthetic peptide binding to human IgG. The note with it: for affinity compared with the original peptide, in words: compared with GFc-C35-3/15. A digest of the protocol:
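Synthetic peptides, truncated or carrying amino-acid substitutions, were tested for binding to human IgG by surface plasmon resonance to gauge each substitution's contribution to affinity.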
In general terms: In SPR one partner is held on a chip, and binding of the other changes the refractive index at the surface.

Where [1] appears, read: SPR, synthetic peptide binding to human IgG, read-out: Kd.

The results in this text go back to patent publication US9365619B2, “IgG-binding peptide and method for detecting and purifying IgG using same” (Otsuka Chemical Co., Ltd., priority 2011, dated 2016).

Like-named read-outs stand apart in the source and are kept apart here. Bridge positions count the residues as written; N and C are the ends. Peptide text beside a SMILES is read from it.

The Kd is the constant that tells how readily two partners part at equilibrium. Turning to `CC(C)C[C@@H]1NC(=O)[C@H](CC(N)=O)NC(=O)CNC(=O)[C@H](CC(N)=O)NC(=O)[C@H]([C@@H](C)O)NC(=O)[C@H](Cc2ccc(O)cc2)NC(=O)[C@H]([C@@H](C)O)NC(=O)[C@@H](NC(=O)[C@@H](N)CC(=O)O)CSSC[C@@H](C(=O)N[C@@H](CO)C(N)=O)NC(=O)[C@H](Cc2c[nH]c3ccccc23)NC(=O)[C@H](C(C)C)NC1=O` [GFc-C35-3/15 (T15S), DCTYTNGNLVWCS] (H-DCTYTNGNLVWCS-NH2; disulfide 2-12), the Kd under setting [1] is 34 µM.
The same measure, in the same setting: next, `CC[C@H](C)[C@@H]1NC(=O)[C@H](CC(C)C)NC(=O)[C@H](CC(N)=O)NC(=O)CNC(=O)[C@H](CC(N)=O)NC(=O)[C@H]([C@@H](C)O)NC(=O)[C@H](Cc2ccc(O)cc2)NC(=O)[C@H]([C@@H](C)O)NC(=O)[C@@H](NC(=O)[C@@H](N)CC(=O)O)CSSC[C@@H](C(=O)N[C@H](C(N)=O)[C@@H](C)O)NC(=O)[C@H](Cc2c[nH]c3ccccc23)NC1=O` [GFc-C35-3/15 (V12I), DCTYTNGNLIWCT] (H-DCTYTNGNLIWCT-NH2; disulfide 2-12): 12 µM.
Consider `CC(C)C[C@@H]1NC(=O)[C@H](CC(N)=O)NC(=O)CNC(=O)[C@H](CC(N)=O)NC(=O)[C@H]([C@@H](C)O)NC(=O)[C@H](Cc2ccccc2)NC(=O)[C@H]([C@@H](C)O)NC(=O)[C@@H](NC(=O)[C@@H](N)CC(=O)O)CSSC[C@@H](C(=O)N[C@H](C(N)=O)[C@@H](C)O)NC(=O)[C@H](Cc2c[nH]c3ccccc23)NC(=O)[C@H](C(C)C)NC1=O` [GFc-C35-3/15 (Y6F), DCTFTNGNLVWCT] (H-DCTFTNGNLVWCT-NH2; disulfide 2-12), for which the “affinity compared with the original peptide, in words” value is on record as “greatly reduced affinity”. For the same molecule, the dissociation constant (Kd) under setting [1] amounted to 2100 µM.
In the same order, the values of `CC(C)C[C@@H]1NC(=O)[C@H](CC(N)=O)NC(=O)CNC(=O)[C@H](CC(N)=O)NC(=O)[C@H]([C@@H](C)O)NC(=O)[C@H](Cc2c[nH]c3ccccc23)NC(=O)[C@H]([C@@H](C)O)NC(=O)[C@@H](NC(=O)[C@@H](N)CC(=O)O)CSSC[C@@H](C(=O)N[C@H](C(N)=O)[C@@H](C)O)NC(=O)[C@H](Cc2c[nH]c3ccccc23)NC(=O)[C@H](C(C)C)NC1=O` [GFc-C35-3/15 (Y6W), DCTWTNGNLVWCT] (H-DCTWTNGNLVWCT-NH2; disulfide 2-12) are “increased affinity” and 50 µM.
For `CC(C)C[C@@H]1NC(=O)[C@H](CC(N)=O)NC(=O)CNC(=O)[C@H](CC(N)=O)NC(=O)[C@H]([C@@H](C)O)NC(=O)[C@H](Cc2ccc(O)cc2)NC(=O)[C@H]([C@@H](C)O)NC(=O)[C@@H](NC(=O)[C@@H](N)CC(=O)O)CSSC[C@@H](C(=O)N[C@H](C(N)=O)[C@@H](C)O)NC(=O)[C@H](Cc2c[nH]c3ccccc23)NC(=O)[C@H](C(C)C)NC1=O` [GFc-C35-3/15, DCTYTNGNLVWCT] (H-DCTYTNGNLVWCT-NH2; disulfide 2-12), the Kd under setting [1] came out at 130 µM.
Still for that read-out and setting: next, `CC(C)C[C@@H]1NC(=O)[C@H](CCC(=O)O)NC(=O)CNC(=O)[C@H](CCCNC(=N)N)NC(=O)[C@H](Cc2c[nH]cn2)NC(=O)[C@H](Cc2ccc(O)cc2)NC(=O)[C@H](C)NC(=O)[C@@H](NC(=O)[C@H](CC(=O)O)NC(=O)[C@@H]2CCCN2C(=O)CN)CSSC[C@@H](C(=O)N[C@H](C(=O)N[C@@H](Cc2ccccc2)C(=O)N[C@@H](Cc2c[nH]cn2)C(N)=O)[C@@H](C)O)NC(=O)[C@H](Cc2c[nH]c3ccccc23)NC(=O)[C@H](C(C)C)NC1=O` [Peptide C35A, GPDCAYHRGELVWCTFH] (H-GPDCAYHRGELVWCTFH-NH2; disulfide 4-14): 0.009 µM.
On to `CC(C)C[C@@H]1NC(=O)[C@H](CCC(=O)O)NC(=O)CNC(=O)[C@H](CCCNC(=N)N)NC(=O)[C@H](Cc2c[nH]cn2)NC(=O)[C@H](Cc2ccc(O)cc2)NC(=O)[C@H](C)NC(=O)[C@@H](NC(=O)[C@@H](N)CCCNC(=N)N)CSSC[C@@H](C(=O)N[C@@H](CO)C(N)=O)NC(=O)[C@H](Cc2c[nH]c3ccccc23)NC(=O)[C@H](C(C)C)NC1=O` [RCAYHRGELVWCS] (H-RCAYHRGELVWCS-NH2; disulfide 2-12), for which the dissociation constant Kd (SPR sensorgram analysis, human IgG, read-out: affinity (Kd value)) was 0.147 µM.
